Measured values from US20060025481A1, “Process for preparation of probucol derivatives and polymorphic forms thereof” (priority 2004, published 2006).

Key:
[1] = Hygroscopicity of the crystalline polymorphic forms; assay type: physicochemical; conditions: crystalline solid form
[2] = Solid-state stability of the polymorphic forms
[3] = cited from earlier work

For CC(C)(Sc1cc(C(C)(C)C)c(O)c(C(C)(C)C)c1)Sc1cc(C(C)(C)C)c(OCC(=O)O)c(C(C)(C)C)c1 [Form A], the hygroscopicity [1] was “nonhygroscopic”.
In the case of CCC(Oc1c(C(C)(C)C)cc(SC(C)(C)Sc2cc(C(C)(C)C)c(O)c(C(C)(C)C)c2)cc1C(C)(C)C)C(=O)O (stereo not drawn) [Form Al], the “stability of polymorphic form” value [2] is reported as “acceptable stability”.
In the case of CC(C)(Sc1cc(C(C)(C)C)c(O)c(C(C)(C)C)c1)Sc1cc(C(C)(C)C)c(O)c(C(C)(C)C)c1 [probucol, 4,4′-(isopropylidenedithio) bis[2,6-di-tert-butylphenol]], the solubility in water [3] is listed as “minimally soluble in water”.
